{"source": "paper PMC6796237", "about": "(ACS Omega, 2019)", "target": "recombinant HCV NS3/4A GT1b wt (Hepatitis C virus genotype 1b, UniProt Q9WMX2)", "sequence (Q9WMX2 1027-1657 limits assumed)": "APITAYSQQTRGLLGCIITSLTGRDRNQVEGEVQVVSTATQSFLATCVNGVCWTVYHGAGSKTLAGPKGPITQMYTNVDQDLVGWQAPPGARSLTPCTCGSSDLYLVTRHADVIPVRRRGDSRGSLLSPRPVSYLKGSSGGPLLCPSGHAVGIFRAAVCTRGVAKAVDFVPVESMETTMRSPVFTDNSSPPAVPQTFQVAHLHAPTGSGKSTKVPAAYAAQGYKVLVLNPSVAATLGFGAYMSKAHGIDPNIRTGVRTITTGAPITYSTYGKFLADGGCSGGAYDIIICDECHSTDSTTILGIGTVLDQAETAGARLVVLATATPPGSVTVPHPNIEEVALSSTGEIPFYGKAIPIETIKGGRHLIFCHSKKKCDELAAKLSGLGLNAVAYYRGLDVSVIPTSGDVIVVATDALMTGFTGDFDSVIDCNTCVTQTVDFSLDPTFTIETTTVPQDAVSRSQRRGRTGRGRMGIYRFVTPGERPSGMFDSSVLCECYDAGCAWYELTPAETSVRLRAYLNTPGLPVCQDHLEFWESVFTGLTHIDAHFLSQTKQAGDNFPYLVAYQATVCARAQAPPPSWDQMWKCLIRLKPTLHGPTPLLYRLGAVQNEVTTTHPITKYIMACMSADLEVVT", "sequence (Q9WMX2 1658-1711 partner limits assumed)": "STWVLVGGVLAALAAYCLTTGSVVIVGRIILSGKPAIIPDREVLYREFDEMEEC", "experiment": "HCV NS3/4A enzymatic inhibition assay, wild type", "type": "biochemical", "conditions": "compounds at 13.08, 14.68, 4.60 μM of 1, 12, 22; 40 nM enzyme", "data": [{"substance": "3-(1H-Indol-3-yl)-2-(3-(4-isopropylphenyl)ureido)-N-(3-(piperidin-1-yl)propyl)propenamide [Compound 22]", "values": [{"measurement": "Decrease of HCV NS3/4A activity", "value": "about 50%"}]}]}
